The record followed here is ChEMBL document CHEMBL2146425, “Solid-phase synthesis and biological evaluation of Joro spider toxin-4 from Nephila clavata” (J Nat Prod, 2011).

Assay [1] has as its target Glutamate NMDA receptor; Grin1/Grin2a (Rattus norvegicus, UniProt P35439+Q00959). Put plainly: Inhibition of rat GluN1/2A expressed in xenopus laevis oocytes assessed as inhibition of glycine-evoked current at membrane potential of -60 mV by voltage-clamp electrophysiology. The class given is cell-based, Oocyte.
Another assay has as its target Glutamate receptor 1 (Rattus norvegicus, UniProt P19490). Put plainly: Inhibition of rat GluA1 expressed in xenopus laevis oocytes assessed as inhibition of glutamate-evoked current at membrane potential of -60 mV by voltage-clamp electrophysiology. Type of assay: cell-based, Oocyte.
The target of assay [2] is Glutamate NMDA receptor; Grin1/Grin2a (Rattus norvegicus) (UniProt P35439+Q00959). Description: Inhibition of rat GluN1/2A expressed in xenopus laevis oocytes assessed as inhibition of glycine-evoked current at membrane potential of -60 mV at 100 uM by voltage-clamp electrophysiology. Type of assay: cell-based. Conditions: Oocyte.
Assay [3] deals with Glutamate receptor 1 (Rattus norvegicus) (UniProt P19490). Description: Inhibition of rat GluA1 expressed in xenopus laevis oocytes assessed as inhibition of glutamate-evoked current at membrane potential of -60 mV at 100 uM by voltage-clamp electrophysiology. Type of assay: cell-based. As to conditions: Oocyte.

Molecules are shown by their SMILES.

Glutamate receptor 1 (Rattus norvegicus), sequence (P19490 whole entry): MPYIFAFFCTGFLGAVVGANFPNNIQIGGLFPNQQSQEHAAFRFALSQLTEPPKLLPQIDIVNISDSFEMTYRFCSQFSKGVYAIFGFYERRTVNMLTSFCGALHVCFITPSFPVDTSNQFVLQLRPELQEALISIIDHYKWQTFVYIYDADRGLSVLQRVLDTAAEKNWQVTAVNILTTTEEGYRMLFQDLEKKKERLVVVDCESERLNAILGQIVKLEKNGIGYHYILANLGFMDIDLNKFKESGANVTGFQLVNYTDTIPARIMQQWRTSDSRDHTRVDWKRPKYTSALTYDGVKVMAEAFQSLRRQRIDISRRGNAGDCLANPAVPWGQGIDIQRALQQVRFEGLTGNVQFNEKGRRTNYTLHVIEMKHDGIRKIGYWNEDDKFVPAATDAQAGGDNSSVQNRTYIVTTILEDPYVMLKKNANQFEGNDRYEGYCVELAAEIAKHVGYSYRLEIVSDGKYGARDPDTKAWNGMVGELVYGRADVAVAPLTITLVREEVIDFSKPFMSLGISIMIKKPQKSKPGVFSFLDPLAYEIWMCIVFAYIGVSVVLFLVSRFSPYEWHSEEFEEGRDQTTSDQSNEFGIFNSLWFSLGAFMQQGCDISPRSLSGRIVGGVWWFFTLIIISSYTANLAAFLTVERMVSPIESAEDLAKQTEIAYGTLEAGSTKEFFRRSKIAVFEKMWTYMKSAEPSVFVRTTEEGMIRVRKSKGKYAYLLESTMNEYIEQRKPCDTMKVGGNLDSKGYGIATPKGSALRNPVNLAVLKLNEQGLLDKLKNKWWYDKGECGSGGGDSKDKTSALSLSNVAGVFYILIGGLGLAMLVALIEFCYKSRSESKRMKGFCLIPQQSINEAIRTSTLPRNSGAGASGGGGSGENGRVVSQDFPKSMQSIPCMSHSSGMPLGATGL
Glutamate receptor 1, sequence (P19490 whole entry): as above

For orientation: IC50 means the concentration that inhibits the measured activity by half. As to `N=C(N)NCCC[C@H](N)C(=O)NCCCNCCCNCCCCCNC(=O)[C@H](CC(N)=O)NC(=O)Cc1ccc(O)cc1O`, the IC50 in assay [1] was found to be 0.074 µM; at Glutamate receptor 1, 0.077 µM.

A word on the inhibition: it is the relative decrease from the control value, in per cent. On to `N=C(N)NCCC[C@H](N)C(=O)N[C@@H](CCCN)C(=O)NCCCCCNC(=O)[C@H](CC(N)=O)NC(=O)Cc1ccc(O)cc1O`, for which the inhibition in assay [2] and in assay [3] was 25% throughout.
